The source of these data is patent US20230096028A1, “BICYCLIC HETEROCYCLYL COMPOUNDS AND USES THEREOF” (Revolution Medicines, Inc., priority 2019, published 2023).

For orientation: Kd means a measure of binding affinity in units of concentration. A word on the IC50: it is the concentration that gives 50% inhibition.

Assay [1] addresses T1, SOS1 catalytic domain (residues 564-1049) (Homo sapiens, UniProt Q07889).
T1 sequence (Q07889 564-1049): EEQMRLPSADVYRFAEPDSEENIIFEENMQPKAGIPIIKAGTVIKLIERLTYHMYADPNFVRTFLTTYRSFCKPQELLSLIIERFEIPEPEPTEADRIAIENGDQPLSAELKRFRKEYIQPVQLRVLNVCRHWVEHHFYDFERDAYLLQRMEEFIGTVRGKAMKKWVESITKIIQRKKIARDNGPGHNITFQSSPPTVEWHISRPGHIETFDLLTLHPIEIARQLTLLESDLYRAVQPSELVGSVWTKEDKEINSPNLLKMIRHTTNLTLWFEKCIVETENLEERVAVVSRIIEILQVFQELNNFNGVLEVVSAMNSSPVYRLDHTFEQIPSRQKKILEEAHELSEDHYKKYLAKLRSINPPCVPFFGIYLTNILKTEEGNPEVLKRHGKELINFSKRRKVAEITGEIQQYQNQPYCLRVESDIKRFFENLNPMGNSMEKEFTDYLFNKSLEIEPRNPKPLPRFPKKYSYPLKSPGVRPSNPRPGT
Nature of the assay: Potency Assay: binding affinity to SOS1 using Surface Plasmon Resonance (SPR). Further details: SOS1 catalytic domain (residues 564-1049) immobilized on a sensor chip. As to conditions: immobilized SOS1 catalytic domain (residues 564-1049), read-out: SOS1 SPR Equilibrium Kd. The essentials:
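Kd was obtained by plotting binding response, taken just before association ended, versus compound concentration on a Biacore 8K. Compounds flowed at 50 μL/min over streptavidin-captured avi-SOS1 catalytic domain (~6000 RU), followed by buffer dissociation; HEPES 0.01 M/NaCl 0.15 M/0.05% P20 buffer, double-referenced.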

Assay [2] concerns PC-9 cells (EGFR Ex19Del). Nature of the assay: Potency Assay: pERK (SOS1 pERK IC50 Assay, AlphaLISA SureFire Ultra p-ERK1/2). Format: cell-based. As to conditions: Homo sapiens, read-out: SOS1 pERK IC50. The essentials:
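Cellular pERK1/2 by AlphaLISA SureFire Ultra after 1 h compound exposure (37° C., highest concentration 10 μM, 3-fold steps, duplicates) of EGFR Ex19Del PC-9 cells seeded the day before. A 4-parameter fit of signal versus log concentration gives IC50.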
In general terms: In Alpha technology, singlet oxygen from a donor bead excites a nearby acceptor bead.

Assay [3] deals with T1, SOS1 catalytic domain (residues 564-1049). The experiment in a line: Mode of Action Assay: inhibition of SOS1 nucleotide exchange activity (SOS1 TR-FRET IC50 Assay). For orientation: Time-resolved FRET reads energy transfer from a long-lived donor to a nearby acceptor.
Setting [4] is: PC-9 cells (EGFR Ex19Del), 1 hour incubation, AlphaLISA p-ERK1/2.

Where two headings read alike, the source gives them in different places.

Take `COCC1(S(=O)(=O)N2CCc3nc(Cl)nc(N[C@H](C)c4cc(N)cc(C(F)(F)F)c4)c3C2)CCC1` [Example 448, N-[(1R)-1-[3-amino-5-(trifluoromethyl)phenyl]ethyl]-2-chloro-6-{[1-(methoxymethyl)cyclobutyl]sulfonyl}-5H,6H,7H,8H-pyrido[4,3-d]pyrimidin-4-amine]: in assay [1], the Kd is < 400 nM. For the same compound, the IC50 in assay [2] (setting [4]) is > 1000 nM; in assay [3], < 1000 nM.

On to `C[C@@H](Nc1nc(Cl)nc2c1CN(S(=O)(=O)C1CCOC1)CC2)c1cc(N)cc(C(F)(F)F)c1` (stereo partly drawn) [Example 449], for which the equilibrium dissociation constant (Kd) in assay [1] is < 400 nM. The half-maximal inhibitory concentration (IC50) in assay [2] (setting [4]) and in assay [3] was < 1000 nM throughout.

`C[C@@H](Nc1nc(Cl)nc2c1CN(S(=O)(=O)C1CCNCC1)CC2)c1cc(N)cc(C(F)(F)F)c1` [Example 450]: the Kd in assay [1] was < 400 nM. Besides, the concentration for half-maximal inhibition (IC50) in assay [2] (setting [4]) and in assay [3] was < 1000 nM each time.

Take `C[C@@H](Nc1nc(Cl)nc2c1CN(S(=O)(=O)C1CNC1)CC2)c1cc(N)cc(C(F)(F)F)c1` [Example 451]: in assay [1], the Kd is < 400 nM. Also, the half-maximal inhibitory concentration (IC50) in assay [2] (setting [4]) and in assay [3] was < 1000 nM in each case.

Take `C[C@@H](Nc1nc(Cl)nc2c1CN(S(=O)(=O)C1CC1)CC2)c1cc(N)cc(C(F)(F)F)c1` [Example 452]: in assay [1], the equilibrium dissociation constant (Kd) was < 400 nM. For the same compound, the IC50 in assay [2] (setting [4]) and in assay [3] was < 1000 nM throughout.

As to `C[C@@H](Nc1nc(Cl)nc2c1CN(S(=O)(=O)C1COC1)CC2)c1cc(N)cc(C(F)(F)F)c1` [Example 453], in assay [1], the Kd is < 400 nM. The half-inhibitory concentration (IC50) in assay [2] (setting [4]) and in assay [3] was < 1000 nM each time.

For the compound `COc1ccc(S(=O)(=O)N2CCc3nc(Cl)nc(N[C@H](C)c4cc(N)cc(C(F)(F)F)c4)c3C2)cc1` [Example 454], the dissociation constant (Kd) in assay [1] is < 400 nM. For the same compound, the IC50 in assay [2] (setting [4]) and in assay [3] was < 1000 nM in each case.

For `C[C@@H](Nc1nc(Cl)nc2c1CN(S(=O)(=O)C1CCOCC1)CC2)c1cc(N)cc(C(F)(F)F)c1` [Example 455], the Kd in assay [1] is < 400 nM. For the same compound, the IC50 in assay [2] (setting [4]) and in assay [3] was < 1000 nM in each case.

On to `C[C@@H](Nc1nc(Cl)nc2c1CN(S(=O)(=O)C1CC(F)(F)C1)CC2)c1cc(N)cc(C(F)(F)F)c1` [Example 456], for which, in assay [1], the Kd was < 400 nM. For the same compound, the IC50 in assay [2] (setting [4]) and in assay [3] was < 1000 nM in each case.

In the case of `C[C@@H](Nc1nc(Cl)nc2c1CN(S(=O)(=O)CCO)CC2)c1cc(N)cc(C(F)(F)F)c1` [Example 457], the Kd in assay [1] is < 400 nM. Moreover, the IC50 in assay [2] (setting [4]) and in assay [3] was < 1000 nM in each case.

As to `C[C@@H](Nc1nc(Cl)nc2c1CN(S(=O)(=O)c1c[nH]cn1)CC2)c1cc(N)cc(C(F)(F)F)c1` [Example 458], in assay [1], the dissociation constant Kd was < 400 nM. Besides, the IC50 in assay [2] (setting [4]) and in assay [3] was < 1000 nM in each case.

As for `C[C@@H](Nc1nc(Cl)nc2c1CN(C(=O)N1CCOCC1)C2)c1cccc(C(F)(F)C2COCCN2C)c1` (stereo partly drawn) [Example 460, (2-chloro-4-(((1R)-1-(3-(difluoro(4-methylmorpholin-3-yl)methyl)phenyl)ethyl)amino)-5,7-dihydro-6H-pyrrolo[3,4-d]pyrimidin-6-yl)(morpholino)methanone], in assay [1], the Kd is < 400 nM. For the same compound, the IC50 in assay [2] (setting [4]) and in assay [3] was < 1000 nM each time.

Turning to `O=C(N1CCOCC1)N1Cc2nc(Cl)nc(NC(CF)c3cccc(C(F)(F)CO)c3)c2C1` (stereo not drawn) [Example 463, (2-chloro-4-((1-(3-(1,1-difluoro-2-hydroxyethyl)phenyl)-2-fluoroethyl)amino)-5,7-dihydro-6H-pyrrolo[3,4-d]pyrimidin-6-yl)(morpholino)methanone], in assay [1], the Kd was < 400 nM. Further, the IC50 in assay [2] (setting [4]) was > 1000 nM; in assay [3], < 1000 nM.

Regarding `C[C@@H](Nc1nc(Cl)nc2c1CN(C(=O)N1CCOCC1)C2)c1cccc2c1OCC2(F)F` [Example 466, [2-chloro-4-[[(1R)-1-(3,3-difluoro-2H-benzofuran-7-yl)ethyl]amino]-5,7-dihydropyrrolo[3,4-d]pyrimidin-6-yl]-morpholino-methanone], the dissociation constant Kd in assay [1] is < 400 nM. Also, the IC50 in assay [2] (setting [4]) and in assay [3] was < 1000 nM throughout.

As to `C[C@@H](Nc1nc(Cl)nc2c1CN(C(=O)N1CCOCC1)C2)c1cccc(C(C)(F)F)c1` [Example 467, [2-chloro-4-[[(1R)-1-[3-(1,1-difluoroethyl)phenyl]ethyl]amino]-5,7-dihydropyrrolo[3,4-d]pyrimidin-6-yl]-morpholino-methanone], the equilibrium dissociation constant (Kd) in assay [1] is < 400 nM. The half-inhibitory concentration (IC50) in assay [2] (setting [4]) was > 1000 nM; in assay [3] it was < 1000 nM.

For the compound `C[C@@H](Nc1nc(Cl)nc2c1CN(C(=O)N1CCOCC1)C2)c1cccc2c(F)coc12` [Example 468, [2-chloro-4-[[(1R)-1-(3-fluorobenzofuran-7-yl)ethyl]amino]-5,7-dihydropyrrolo[3,4-d]pyrimidin-6-yl]-morpholino-methanone], the equilibrium dissociation constant (Kd) in assay [1] was < 400 nM. In addition, the IC50 in assay [2] (setting [4]) and in assay [3] was < 1000 nM throughout.

For `C[C@@H](Nc1nc(Cl)nc2c1CN(C(=O)N1CCOCC1)C2)c1cccc(C(F)(F)COC2CC2)c1F` [Example 469, [2-chloro-4-[[(1R)-1-[3-[2-(cyclopropoxy)-1,1-difluoro-ethyl]-2-fluoro-phenyl]ethyl]amino]-5,7-dihydropyrrolo[3,4-d]pyrimidin-6-yl]-morpholino-methanone], the Kd in assay [1] is < 400 nM. Moreover, the IC50 is < 1000 nM in assay [2] (PC-9, 1 h) and < 1000 nM in assay [3].

`CCC(Nc1nc(Cl)nc2c1CN(C(=O)N1CCOCC1)C2)c1cc(N)cc(C(F)(F)F)c1` (stereo not drawn) [Example 470, N-{1-[3-amino-5-(trifluoromethyl)phenyl]propyl}-2-chloro-6-(morpholine-4-carbonyl)-5H,6H,7H-pyrrolo[3,4-d]pyrimidin-4-amine]: in assay [1], the dissociation constant Kd was > 400 nM. For the same compound, the 50% inhibitory concentration (IC50) is < 1000 nM in assay [2] (PC-9, 1 h) and < 1000 nM in assay [3].

As for `COC1(C(=O)N2Cc3nc(Cl)nc(NC(C)c4cccc(C(F)(F)CO)c4F)c3C2)CCOCC1` (stereo not drawn) [Example 471, 2-[3-(1-{[2-chloro-6-(4-methoxyoxane-4-carbonyl)-5H,6H,7H-pyrrolo[3,4-d]pyrimidin-4-yl]amino}ethyl)-2-fluorophenyl]-2,2-difluoroethan-1-ol], the dissociation constant Kd in assay [1] was < 400 nM. In addition, the IC50 in assay [2] (setting [4]) and in assay [3] was < 1000 nM throughout.

As for `CC(Nc1nc(Cl)nc2c1CN(C(=O)N1CCOCC1)C2)c1cccc2c1OCCC2(F)F` (stereo not drawn) [Example 476, 2-chloro-N-[1-(4,4-difluoro-3,4-dihydro-2H-1-benzopyran-8-yl)ethyl]-6-(morpholine-4-carbonyl)-5H,6H,7H-pyrrolo[3,4-d]pyrimidin-4-amine], the Kd in assay [1] was < 400 nM. Further, the IC50 in assay [2] (setting [4]) was > 1000 nM; in assay [3] it was < 1000 nM.

Regarding `Cc1c([C@@H](C)Nc2nc(Cl)nc3c2CN(C(=O)N2CCOCC2)C3)cccc1C(F)(F)F` [Example 477, 2-chloro-N-[(1R)-1-[2-methyl-3-(trifluoromethyl)phenyl]ethyl]-6-(morpholine-4-carbonyl)-5H,6H,7H-pyrrolo[3,4-d]pyrimidin-4-amine], in assay [1], the dissociation constant (Kd) is < 400 nM. Moreover, the IC50 in assay [2] (setting [4]) and in assay [3] was < 1000 nM in each case.

On to `C[C@@H](Nc1nc(Cl)nc2c1CN(C(=O)N1CCOCC1)C2)c1cccc(C(C)(F)F)c1F` [Example 478, 2-chloro-N-[(1R)-1-[3-(1,1-difluoroethyl)-2-fluorophenyl]ethyl]-6-(morpholine-4-carbonyl)-5H,6H,7H-pyrrolo[3,4-d]pyrimidin-4-amine], for which the dissociation constant Kd in assay [1] is < 400 nM. For the same compound, the IC50 in assay [2] (setting [4]) and in assay [3] was < 1000 nM in each case.

Turning to `C[C@@H](Nc1nc(Cl)nc2c1CN(C(=O)N1CCOCC1)C2)c1cccc(C(F)(F)COC2COC2)c1` [Example 479, 2-chloro-N-[(1R)-1-{3-[1,1-difluoro-2-(oxetan-3-yloxy)ethyl]phenyl}ethyl]-6-(morpholine-4-carbonyl)-5H,6H,7H-pyrrolo[3,4-d]pyrimidin-4-amine], the dissociation constant (Kd) in assay [1] was < 400 nM. In addition, the IC50 in assay [2] (setting [4]) and in assay [3] was < 1000 nM each time.

`C[C@@H](Nc1nc(Cl)nc2c1CN(C(=O)N1CCOCC1)C2)c1cccc(C(C)(C)C#N)c1` [Example 482, 2-{3-[(1R)-1-{[2-chloro-6-(morpholine-4-carbonyl)-5H,6H,7H-pyrrolo[3,4-d]pyrimidin-4-yl]amino}ethyl]phenyl}-2-methylpropanenitrile]: in assay [1], the dissociation constant Kd was > 400 nM. Further, the 50% inhibitory concentration (IC50) in assay [2] (PC-9, 1 h) was > 1000 nM; in assay [3] it was < 1000 nM.
